Experimental findings from patent US11371077B2, “High throughput cell-based screening for aptamers” (MeiraGTx UK II Limited, priority 2016, dated 2022) are described below.

Counter-ions that a name gives are not always drawn. Like-named read-outs stand apart in the source and are kept apart here. Where a SMILES comes first, the peptide text is derived from it. [ ]: non-standard residue; d: D form. The star is where a group is joined. Sta = CC(C)C[C@H](N)[C@@H](O)CC(=O)O; Isovaleryl = CC(C)CC(=O)*

Common to all, as to assay type: cell-based
The subject of one data set is add-A6 riboswitch. The experiment in a line: cells. Conditions: add-A6 riboswitch, Prestwick library compounds at 100 μM, HEK 293; for fold induction at 100 µM: Homo sapiens, HEK293, read-out: Fold Induction of luciferase activity. The text has this: (§1) Riboswitches were constructed as described in PCT/US2016/016234 (in particular Examples 3 to 6), incorporated herein by reference. A truncated human beta-globin intron sequence was synthesized and inserted in the coding sequence of a firefly luciferase gene. A mutant human DHFR exon 2 was synthesized and inserted in the middle of this truncated beta-globin intron sequence using Golden gate cloning strategy. Aptamers including xpt-G/A^1, ydhl-G/A^2, yxj^3, add^4, gdg6-G/A^5 (citations for the aptamers are incorporated herein by reference) were synthesized as oligonucleotides (“oligos”) with 4 nucleotide overhang at the 5′ end that are complementary to two different BsaI sites individually (IDT), annealed and ligated to BsaI-digested mDHFR-Luci-acceptor vector.
(§2) 3.5×10^4 HEK 293 cells were plated in a 96-well flat bottom plate the day before transfection. Plasmid DNA (500 ng) was added to a tube or a 96-well U-bottom plate. Separately, TransIT-293 reagent (Mirus; 1.4 μL) was added to 50 μL Opti-mem I media (Life Technologies), and allowed to sit for 5 minutes at room temperature (RT). Then, 50 μL of this diluted transfection reagent was added to the DNA, mixed, and incubated at RT for 20 min. Finally, 7 μL of this solution was added to a well of cells in the 96-well plate.
(§3) 24 hours after media change, plates were removed from the incubator, and equilibrated to RT for several minutes on a lab bench, then aspirated. Glo-lysis buffer (Promega, 100 μL, RT) was added, and the plates maintained at RT for at least 5 minutes. Then, the well contents were mixed by 50 μL trituration, and 20 μL of each sample was mixed with 20 μL of bright-glo reagent (Promega) that had been diluted to 10% in glo-lysis buffer. 96 wells were spaced on an opaque white 384-well plate. Following a 5 min incubation at RT, luminescence was measured using a Tecan machine with 500 mSec read time. The luciferase activity was expressed as mean relative light unit (RLU)±S.D., and fold induction was calculated as the luciferase activity obtained with guanine treatment divided by luciferase activity obtained without guanine treatment.

The next data set deals with ydhl-G8 riboswitch. The data set is described as follows: Luciferase reporter assay, ydhl-G8 riboswitch, transfected HEK 293 cells.
Source text: (§4) A truncated human beta-globin intron sequence was synthesized and inserted in the coding sequence of a firefly luciferase gene. A mutant human DHFR exon 2 was synthesized and inserted in the middle of this truncated beta-globin intron sequence using Golden gate cloning strategy. Aptamers including xpt-G/A^1, ydhl-G/A^2, yxj^3, add^4, gdg6-G/A^5 (citations for the aptamers are incorporated herein by reference) were synthesized as oligonucleotides (“oligos”) with 4 nucleotide overhang at the 5′ end that are complementary to two different BsaI sites individually (IDT), annealed and ligated to BsaI-digested mDHFR-Luci-acceptor vector.
(§5) 3.5×10^4 HEK 293 cells were plated in a 96-well flat bottom plate the day before transfection. Plasmid DNA (500 ng) was added to a tube or a 96-well U-bottom plate. […] Then, 50 μL of this diluted transfection reagent was added to the DNA, mixed, and incubated at RT for 20 min. Finally, 7 μL of this solution was added to a well of cells in the 96-well plate.
as §3

The next data set deals with xpt-G17 riboswitch. The data set is described as follows: Luciferase reporter assay, xpt-G17 riboswitch, transfected HEK 293 cells. The note with it: preliminary screen.
Source text: as §4, §2, §3

The next data set concerns gdg6-G8 riboswitch. The data set is described as follows: Luciferase reporter assay, gdg6-G8 riboswitch, transfected HEK 293 cells. Conditions: gdg6-G8 riboswitch, Prestwick library compounds at 100 μM, HEK 293.
Source text: as §1, §2, §3

Another data set deals with add-G6 riboswitch. The data set is described as follows: cells. Conditions: add-G6 riboswitch, Prestwick library compounds at 100 μM, HEK 293; for fold induction at 100 µM: Homo sapiens, HEK293, read-out: Fold Induction of luciferase activity.
Source text: as §4, §5
as §3, with “The luciferase activity was expressed as mean relative light unit (RLU)±S.D., and fold induction was calculated as the luciferase activity obtained with guanine treatment divided by luciferase activity obtained without guanine treatment.” left out

The next data set relates to ydhl-A6 riboswitch. The data set is described as follows: Luciferase reporter assay, ydhl-A6 riboswitch, transfected HEK 293 cells. The note with it: for fold induction at 100 µM: Homo sapiens.
Source text: as §4, §5, §3

In another data set the test system is gdg6-A8 riboswitch. The data set is described as follows: Luciferase reporter assay, gdg6-A8 riboswitch, transfected HEK 293 cells. Conditions: Homo sapiens, HEK293; gdg6-A8 riboswitch; Prestwick library compounds at 100 μM; HEK 293.
Source text: as §1, §2, §3

The next data set deals with yxj-A6 riboswitch. The data set is described as follows: cells. The note with it: Homo sapiens, HEK293; yxj-A6 riboswitch; Prestwick library compounds at 100 μM; HEK 293; read-out: Fold Induction of luciferase activity.
Source text: as §4, §2
as §3, with “The luciferase activity was expressed as mean relative light unit (RLU)±S.D., and fold induction was calculated as the luciferase activity obtained with guanine treatment divided by luciferase activity obtained without guanine treatment.” left out

[1] abbreviates: HEK293, read-out: Fold Induction of luciferase activity, ydhl-A6 riboswitch, Prestwick library compounds at 100 μM, HEK 293.
Setting [2] is: HEK293, read-out: Fold Induction of luciferase activity.
Where [3] appears, read: ydhl-A6 riboswitch, Prestwick library compounds at 100 μM, HEK 293.

On to `C=CC[N@@+]12CC[C@@]34c5ccccc5N5/C=C6/[C@H]7C[C@H]8[C@@]9(CC[N@@+]8(CC=C)C/C7=C/CO)c7ccccc7N(/C=C(/[C@@H](C[C@@H]31)/C(=C\CO)C2)[C@H]54)[C@@H]69.[Cl-].[Cl-]` [Alcuronium chloride], for which the “Fold Induction of luciferase activity” value with add-A6 riboswitch is given as 4.2 fold.
Take `C[C@@H]1[C@H](O)[C@@H](C)/C=C/C=C/C=C/C=C/C=C/C=C/C=C/[C@H](O[C@@H]2O[C@H](C)[C@@H](O)[C@H](N)[C@@H]2O)C[C@@H]2O[C@](O)(C[C@@H](O)C[C@@H](O)[C@H](O)CC[C@@H](O)C[C@@H](O)CC(=O)O[C@H]1C)C[C@H](O)[C@H]2C(=O)O` [Amphotericin B]: the “Fold Induction of luciferase activity” value in the data set with ydhl-G8 riboswitch (ydhl-G8 riboswitch, Prestwick library compounds at 100 μM, HEK 293) is on record as 6.5 fold; in the data set with xpt-G17 riboswitch (xpt-G17 riboswitch, Prestwick library compounds at 100 μM, HEK 293), 21.5 fold; with gdg6-G8 riboswitch, 3.8 fold; in the data set with add-G6 riboswitch, 10.7 fold. Moreover, in the data set with xpt-G17 riboswitch (Prestwick library at 100 μM), the “response of guanine riboswitch xpt-G17 to compound (FIG. 1e)” value is recorded as “responded”.
As to `O=C(CCCN1CCC(n2c(O)nc3ccccc32)CC1)c1ccc(F)cc1` [Benperidol], the fold induction at 100 µM with ydhl-A6 riboswitch (setting [1]) amounted to 3.1.
Regarding `C[C@]12CC[C@H](O)C[C@H]1CC[C@@H]1[C@@H]2C[C@@H](O)[C@]2(C)[C@@H](C3=CC(=O)OC3)CC[C@]12O` [Digoxigenin], the fold induction at 100 µM in the data set with ydhl-A6 riboswitch (setting [1]) is 4.5. Moreover, the “Fold Induction of luciferase activity” value in the data set on ydhl-A6 riboswitch (ydhl-A6 riboswitch, Prestwick library compounds at 100 μM, HEK 293, 100 µM) was 3.3 fold.
For the molecule `NS(=O)(=O)c1cc2c(cc1Cl)NCNS2(=O)=O` [Hydrochlorothiazide], in the data set on ydhl-A6 riboswitch (setting [1]), the fold induction at 100 µM came out at 3.3.
On to `COC1=C(OC)C(=O)C(CCCCCCCCCCO)=C(C)C1=O` [Idebenone], for which the fold induction at 100 µM in the data set with xpt-G17 riboswitch (Homo sapiens, HEK293, xpt-G17 riboswitch, Prestwick library compounds at 100 μM, HEK 293) amounted to 3.3; in the data set with ydhl-A6 riboswitch (setting [2]) it was 3.5; in the data set with add-G6 riboswitch, 6.7.
For `CNC1(C)C2CCC(C2)C1(C)C` (centres unmarked) [Mecamylamine hydrochloride], in the data set with ydhl-A6 riboswitch (setting [1]), the fold induction at 100 µM worked out at 3.2.
In the case of `NC(=O)C[S+]([O-])C(c1ccccc1)c1ccccc1` (centres unmarked) [Modafinil], the fold induction at 100 µM with ydhl-A6 riboswitch (setting [1]) stood at 3.8.
As for `CCOC(=O)Nc1ccc2c(c1)N(C(=O)CCN1CCOCC1)c1ccccc1S2` [Moricizine hydrochloride], the fold induction at 100 µM with ydhl-A6 riboswitch (setting [2]) is 10.3.
For the molecule `OCCN1CCN(CCCN2c3ccccc3C=Cc3ccccc32)CC1` [Opipramol dihydrochloride], the fold induction at 100 µM amounted to 3.1 with gdg6-A8 riboswitch and 4.3 in the data set with add-A6 riboswitch.
Consider `O=C(O)CCc1nc(-c2ccccc2)c(-c2ccccc2)o1` [Oxaprozin], for which the fold induction at 100 µM with ydhl-A6 riboswitch (setting [1]) was determined as 3.4.
`CC(C)CC(=O)N[C@H](C(=O)N[C@H](C(=O)N[C@@H](CC(C)C)[C@@H](O)CC(=O)N[C@@H](C)C(=O)N[C@@H](CC(C)C)[C@@H](O)CC(=O)O)C(C)C)C(C)C` [Pepstatin A] (Isovaleryl-VV[Sta]A[Sta]-OH): the “Fold Induction of luciferase activity” value in the data set with ydhl-A6 riboswitch (setting [3]) turned out to be 4.0 fold.
Turning to `CCN1CCCC(OC(=O)C(c2ccccc2)c2ccccc2)C1` (centres unmarked) [Piperidolate hydrochloride], the fold induction at 100 µM in the data set on ydhl-A6 riboswitch (setting [2]) was 3.4.
Take `Nc1ccc(S(=O)(=O)Nc2cnc3ccccc3n2)cc1` [Sulfaquinoxaline sodium]: the fold induction at 100 µM in the data set with add-A6 riboswitch was found to be 3.3; with yxj-A6 riboswitch it was 3.4.
With `COc1cc2nc(N3CCN(C(=O)C4CCCO4)CC3)nc(N)c2cc1OC` (centres unmarked) [Terazosin hydrochloride], the fold induction at 100 µM in the data set with add-A6 riboswitch stood at 3.5.
In the case of `Clc1ccccc1CN1CCc2sccc2C1` [Ticlopidine hydrochloride], the fold induction at 100 µM in the data set on ydhl-A6 riboswitch (HEK293, ydhl-A6 riboswitch, Prestwick library compounds at 100 μM, HEK 293, read-out: Fold Induction of luciferase activity) worked out at 3.1.
With `CC[C@]12CCCN3CCc4c(n(c5ccccc45)[C@@](O)(C(=O)OC)C1)[C@@H]32` [Vincamine], the fold induction at 100 µM with ydhl-A6 riboswitch (setting [2]) turned out to be 3.3.
Regarding `O=C(CCCCCCC(=O)Nc1ccccc1)NO` [Vorinostat], the fold induction at 100 µM with gdg6-A8 riboswitch was determined as 6.4; with ydhl-G8 riboswitch (Homo sapiens, HEK293, read-out: Fold Induction of luciferase activity) it was 3; in the data set on gdg6-G8 riboswitch (Homo sapiens, HEK293) it was 10.2; with add-G6 riboswitch, 3.6.
Turning to Alverine citrate salt, in the data set on ydhl-A6 riboswitch (setting [3]), the “Fold Induction of luciferase activity” value stood at 4.2 fold.
Turning to Deptropine citrate, the “Fold Induction of luciferase activity” value in the data set with add-A6 riboswitch was 3.3 fold.
